Source: patent US10323018B2 (Millennium Pharmaceuticals, Inc., priority 2015, dated 2019)
Like-named read-outs stand apart in the source and are kept apart here.

What was measured:
hNAMPT protein = hNAMPT protein (Homo sapiens (Human), UniProt P43490); test: NAMPT enzyme assay (TR-FRET/HTRF with BodiPY ligand); assay type: binding; settings: for inhibition at 1 µM: read-out: Percent Inhibition; for IC50: NAMPT inhibition, IC50 range class
In short: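 Ligand displacement by TR-FRET: BodiPY emission (520 nm) over terbium (486 nm) after 320 nm excitation. Compound, BodiPY ligand, hNAMPT and anti-6His-Tb incubated 1 h at room temperature, dark, at pH 7.5. Percent inhibition computed versus DMSO; concentration-response curves fitted for IC50.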

PC3 cells = test: PC3 growth inhibition (Cell-titer glo, 72 hours); assay type: cell-based; settings: Homo sapiens, PC-3, 72 h, read-out: Percent Viability, PC3 cells, compound concentration 1.667 μM, 72 hours
In short: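 After 72 h compound treatment in AIM serum-free medium (37 °C, 5% CO2), viability of overnight-plated PC3 cells (8×10^4 cells/ml, RPMI1640-maintained) is read by CellTiter-Glo luminescence versus DMSO. Curves give GI50, LD50 or single-concentration % remaining viability.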

[1] = NAMPT inhibition at compound concentration 1 μM

hNAMPT protein, sequence (P43490 whole entry): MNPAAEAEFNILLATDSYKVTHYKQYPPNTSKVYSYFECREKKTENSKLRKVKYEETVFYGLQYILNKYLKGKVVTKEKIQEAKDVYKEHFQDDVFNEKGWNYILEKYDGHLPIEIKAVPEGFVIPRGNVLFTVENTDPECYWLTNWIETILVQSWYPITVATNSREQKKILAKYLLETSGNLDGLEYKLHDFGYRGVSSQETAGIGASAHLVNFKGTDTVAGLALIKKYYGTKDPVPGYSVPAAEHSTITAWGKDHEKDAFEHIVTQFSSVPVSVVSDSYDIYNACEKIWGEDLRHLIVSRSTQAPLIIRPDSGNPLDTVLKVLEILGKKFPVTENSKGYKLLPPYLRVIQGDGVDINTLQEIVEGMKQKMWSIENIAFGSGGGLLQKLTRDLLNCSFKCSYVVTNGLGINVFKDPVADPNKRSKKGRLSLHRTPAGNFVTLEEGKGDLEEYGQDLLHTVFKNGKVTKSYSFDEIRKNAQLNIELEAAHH

Row | SMILES | inhibition at 1 µM (hNAMPT protein; [1]) [%] | IC50 (hNAMPT protein) [nM] | viability at 1.667 µM (PC3 cells) [%] | inhibition at 1 µM (hNAMPT protein) [%]
1 | CCOc1cc(-c2ccc(F)cc2OC)nc2cc(C(=O)NCCc3cnn[nH]3)ccc12 [Compound I-108, 4-ethoxy-2-(4-fluoro-2-methoxyphenyl)-N-[2-(1H-1,2,3-triazol-5-yl)ethyl]quinoline-7-carboxamide] | 99 | 10 to 50 | 3 | –
2 | CCOc1cc(-c2ccc(F)cc2)nc2cc(C(=O)NCc3nc4cnccc4[nH]3)ccc12 [Compound I-14, 4-ethoxy-2-(4-fluorophenyl)-N-(1H-imidazo[4,5-c]pyridin-2-ylmethyl)quinoline-7-carboxamide] | > 99 | < 10 | 1 | –
3 | CCOc1cc(-c2ccnc(OC)c2F)nc2cc(C(=O)NCCCc3nnc[nH]3)ccc12 [Compound I-90, 4-ethoxy-2-(3-fluoro-2-methoxypyridin-4-yl)-N-[3-(4H-1,2,4-triazol-3-yl)propyl]quinoline-7-carboxamide] | 97 | 10 to 50 | 1 | –
4 | CCCc1cc(-c2ccc(F)cc2)nc2cc(C(=O)NCCCc3ncn[nH]3)ccc12 [Compound I-171, 2-(4-fluorophenyl)-4-propyl-N-[3-(4H-1,2,4-triazol-3-yl)propyl]quinoline-7-carboxamide] | 97 | 10 to 50 | 2 | –
5 | CCOc1cc(-c2ccc(=O)n(C)c2)nc2cc(C(=O)NCCc3c[nH]nc3C)ccc12 [Compound I-98, 4-ethoxy-2-(1-methyl-6-oxo-1,6-dihydropyridin-3-yl)-N-[2-(3-methyl-1H-pyrazol-4-yl)ethyl]quinoline-7-carboxamide] | 99 | 50 to 100 | 1 | –
6 | CCOc1cc(-c2ccc(OC)nc2C)nc2cc(C(=O)NCCCc3nnc[nH]3)ccc12 [Compound I-138, 4-ethoxy-2-(6-methoxy-2-methylpyridin-3-yl)-N-[3-(4H-1,2,4-triazol-3-yl)propyl]quinoline-7-carboxamide] | 89 | 50 to 100 | 2 | –
7 | CCOc1cc(-c2ccc(F)cc2)nc2cc(C(=O)NCCCc3ccc(C)nc3)ccc12 [Compound I-227, 4-ethoxy-2-(4-fluorophenyl)-N-[3-(6-methylpyridin-3-yl)propyl]quinoline-7-carboxamide] | 100 | < 10 | 6 | –
8 | CCOc1cc(-c2cnn(C)c2)nc2cc(C(=O)NCCCc3nnc[nH]3)ccc12 [Compound I-206, 4-ethoxy-2-(1-methyl-1H-pyrazol-4-yl)-N-[3-(4H-1,2,4-triazol-3-yl)propyl]quinoline-7-carboxamide] | 66 | > 100 | 2 | –
9 | CCOc1cc(-c2ccncc2)nc2cc(C(=O)NCCCc3nnc[nH]3)ccc12 [Compound I-214, 4-ethoxy-2-(pyridin-4-yl)-N-[3-(4H-1,2,4-triazol-3-yl)propyl]quinoline-7-carboxamide] | 97 | 10 to 50 | 1 | –
10 | CC(C)(C)OCc1nc(-c2ccc(Cl)cc2)nc2cc(C(=O)NCCCc3ncc[nH]3)ccc12 [Compound I-30, 4-(tert-butoxymethyl)-2-(4-chlorophenyl)-N-[3-(1H-imidazol-2-yl)propyl]quinazoline-7-carboxamide] | 91 | 50 to 100 | 1 | –
11 | CCOc1cc(-c2ccncc2C)nc2cc(C(=O)NCCCc3nnc[nH]3)ccc12 [Compound I-158, 4-ethoxy-2-(3-methylpyridin-4-yl)-N-[3-(4H-1,2,4-triazol-3-yl)propyl]quinoline-7-carboxamide] | 97 | 10 to 50 | 1 | –
12 | CCCc1cc(-c2ccc(F)cc2)nc2cc(C(=O)NCCCc3ncc[nH]3)ccc12 [Compound I-163, 2-(4-fluorophenyl)-N-[3-(1H-imidazol-2-yl)propyl]-4-propylquinoline-7-carboxamide] | 97 | < 10 | 2 | –
13 | CCOc1cc(-c2ccc(C)nc2OC)nc2cc(C(=O)NCc3nc4cnccc4[nH]3)ccc12 [Compound I-174, 4-ethoxy-N-(1H-imidazo[4,5-c]pyridin-2-ylmethyl)-2-(2-methoxy-6-methylpyridin-3-yl)quinoline-7-carboxamide] | > 99 | < 10 | 1 | –
14 | CCOc1cc(-c2cn[nH]c2)nc2cc(C(=O)NCCCc3nnc[nH]3)ccc12 [Compound I-205, 4-ethoxy-2-(1H-pyrazol-4-yl)-N-[3-(4H-1,2,4-triazol-3-yl)propyl]quinoline-7-carboxamide] | 63 | > 100 | 4 | –
15 | CCOc1cc(-c2ccc(F)cc2)nc2cc(C(=O)NCCCc3cnn[nH]3)ccc12 [Compound I-115, 4-ethoxy-2-(4-fluorophenyl)-N-[3-(1H-1,2,3-triazol-5-yl)propyl]quinoline-7-carboxamide] | > 99 | < 10 | 2 | –
16 | CCOc1cc(-c2ccc(Cl)cc2)nc2cc(C(=O)NCCCc3ncc[nH]3)ccc12 [Compound I-13, 2-(4-chlorophenyl)-4-ethoxy-N-[3-(1H-imidazol-2-yl)propyl]quinoline-7-carboxamide] | – | < 10 | 0 | > 99
17 | CCOc1nc(-c2ccc(F)cc2)nc2cc(C(=O)NCCCc3cncnc3)ccc12 [Compound I-19, 4-ethoxy-2-(4-fluorophenyl)-N-[3-(pyrimidin-5-yl)propyl]quinazoline-7-carboxamide] | > 99 | < 10 | 1 | –
18 | CCOc1cc(-c2cc(F)ccc2OC)nc2cc(C(=O)NCc3nc4cnccc4[nH]3)ccc12 [Compound I-187, 4-ethoxy-2-(5-fluoro-2-methoxyphenyl)-N-(1H-imidazo[4,5-c]pyridin-2-ylmethyl)quinoline-7-carboxamide] | > 99 | < 10 | 3 | –
19 | CCOc1nc(-c2ccc(F)cc2)nc2cc(C(=O)NCCCc3ncc[nH]3)ccc12 [Compound I-32, 4-ethoxy-2-(4-fluorophenyl)-N-[3-(1H-imidazol-2-yl)propyl]quinazoline-7-carboxamide] | > 99 | < 10 | 2 | –
20 | CCOc1cc(-c2cc(F)ccc2OC)nc2cc(C(=O)NCc3nc4cnccc4n3C)ccc12 [Compound I-179, 4-ethoxy-2-(5-fluoro-2-methoxyphenyl)-N-[(1-methyl-1H-imidazo[4,5-c]pyridin-2-yl)methyl]quinoline-7-carboxamide] | 95 | 50 to 100 | 2 | –
21 | CCOc1cc(-c2ccc(F)cc2OC)nc2cc(C(=O)NCCCc3cnn[nH]3)ccc12 [Compound I-121, 4-ethoxy-2-(4-fluoro-2-methoxyphenyl)-N-[3-(1H-1,2,3-triazol-5-yl)propyl]quinoline-7-carboxamide] | > 99 | < 10 | 2 | –
22 | CCOc1cc(-c2ccc(=O)n(C)c2)nc2cc(C(=O)NCCCc3nnc[nH]3)ccc12 [Compound I-122, 4-ethoxy-2-(1-methyl-6-oxo-1,6-dihydropyridin-3-yl)-N-[3-(4H-1,2,4-triazol-3-yl)propyl]quinoline-7-carboxamide] | > 99 | 10 to 50 | 2 | –
